Here are results for 16 compounds from patent publication US12319708B2, “Agonists of peroxisome proliferator-activated receptor alpha (PPARα) and methods of use” (The Board of Regents of the University of Oklahoma, priority 2018, dated 2025).

In general, EC50 refers to the concentration needed to bring the measured effect to its halfway point. Broadly, the solubility is the concentration that dissolves in the medium under given conditions.

For one data set, the target named is T1, hPPARδ (Homo sapiens, UniProt Q03181).
T1 construct: expressed in transfected cells
T1 sequence (Q03181 1-441): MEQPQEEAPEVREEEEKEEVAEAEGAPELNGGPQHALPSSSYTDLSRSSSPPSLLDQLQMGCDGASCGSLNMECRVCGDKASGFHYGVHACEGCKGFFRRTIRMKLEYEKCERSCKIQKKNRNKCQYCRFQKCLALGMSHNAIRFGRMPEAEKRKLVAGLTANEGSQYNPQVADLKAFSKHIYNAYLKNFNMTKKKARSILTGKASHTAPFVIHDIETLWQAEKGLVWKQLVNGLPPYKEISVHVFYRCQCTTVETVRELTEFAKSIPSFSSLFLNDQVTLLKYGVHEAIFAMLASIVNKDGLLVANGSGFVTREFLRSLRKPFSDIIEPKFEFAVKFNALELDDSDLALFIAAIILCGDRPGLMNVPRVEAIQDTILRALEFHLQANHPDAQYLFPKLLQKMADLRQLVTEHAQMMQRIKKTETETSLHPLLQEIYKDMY
Description: PPARδ luciferase reporter cell-line assay (Indigo Biosciences). Format: cell-based. As to the method:
(§1) Luciferase assays were conducted on isogenic cell-lines engineered to overexpress either PPARδ or PPARγ with expression of the requisite luciferase reporter gene dependent upon exogenous activation of each isoform.
(In general: Reporter assays use an easily measured gene product as a stand-in for the process of interest.)

Another data set addresses T2, hPPARγ (Homo sapiens, UniProt P37231).
T2 construct: expressed in transfected cells
T2 sequence (P37231 1-505): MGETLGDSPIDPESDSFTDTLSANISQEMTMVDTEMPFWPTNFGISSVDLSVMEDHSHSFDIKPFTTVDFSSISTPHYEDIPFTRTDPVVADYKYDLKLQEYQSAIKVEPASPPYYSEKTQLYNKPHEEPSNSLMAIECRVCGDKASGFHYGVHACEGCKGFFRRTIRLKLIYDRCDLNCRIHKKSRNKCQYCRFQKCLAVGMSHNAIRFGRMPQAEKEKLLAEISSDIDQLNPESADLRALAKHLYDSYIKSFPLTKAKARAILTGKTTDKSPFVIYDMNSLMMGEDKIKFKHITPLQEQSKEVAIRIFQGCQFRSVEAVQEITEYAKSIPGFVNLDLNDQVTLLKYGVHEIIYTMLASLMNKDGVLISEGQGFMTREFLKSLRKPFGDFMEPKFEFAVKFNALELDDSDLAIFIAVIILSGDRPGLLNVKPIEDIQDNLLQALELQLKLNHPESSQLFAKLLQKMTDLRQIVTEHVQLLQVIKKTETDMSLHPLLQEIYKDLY
Description: PPARγ luciferase reporter cell-line assay (Indigo Biosciences). Format: cell-based. As to the method:
as §1

Data set [1] concerns PPARα expression in 661W cells. Description: Western blot analysis of PPARα expression in 661W cells. Format: cell-based, mouse. The conditions noted are these: 24 h, 10, 50 and 100 μM. Here is the method:
(§2) To further confirm that this 4-benzyloxy-benzylamino chemotype acts as a PPARα agonist, we evaluated compound 10 in various biochemical assays. […] Compound 10 was also evaluated in an in vitro wound healing assay utilizing human retinal capillary endothelial cells (HRCEC).

Data set [2] relates to PPARα target genes (Acadm, Cpt1a, Fabp3, Slc25a20) in 661W cells. Description: RT-PCR of PPARα target genes in 661W cells. Type of data set: cell-based, mouse. The conditions noted are these: 24 h. Here is the method: as §2
Data set [3] relates to retinal vascular leakage in diabetic rats. Description: STZ-rat model of diabetic retinopathy, retinal permeability. Format: in vivo. Here is the method:
7-8 week-old male Brown Norway rats were injected with streptozotocin (STZ, 55 mg/kg).

Data set [4] has as its system liver phenotype of STZ diabetic rats. Description: STZ-rat model, liver phenotype and toxicity. Type of data set: in vivo. Here is the method:
7-8 week-old male Brown Norway rats were injected with streptozotocin (STZ, 55 mg/kg). Two weeks after STZ injections, daily treatment (i.p. injection) with ASD091 or FenoFA commenced and lasted for 26-28 days. ≠P<0.05 (vs. FenoFA), *P<0.05 (vs. STZ-DMSO).

In a further data set the target is T3, hPPARα (Homo sapiens, UniProt Q07869).
T3 sequence (Q07869 1-468): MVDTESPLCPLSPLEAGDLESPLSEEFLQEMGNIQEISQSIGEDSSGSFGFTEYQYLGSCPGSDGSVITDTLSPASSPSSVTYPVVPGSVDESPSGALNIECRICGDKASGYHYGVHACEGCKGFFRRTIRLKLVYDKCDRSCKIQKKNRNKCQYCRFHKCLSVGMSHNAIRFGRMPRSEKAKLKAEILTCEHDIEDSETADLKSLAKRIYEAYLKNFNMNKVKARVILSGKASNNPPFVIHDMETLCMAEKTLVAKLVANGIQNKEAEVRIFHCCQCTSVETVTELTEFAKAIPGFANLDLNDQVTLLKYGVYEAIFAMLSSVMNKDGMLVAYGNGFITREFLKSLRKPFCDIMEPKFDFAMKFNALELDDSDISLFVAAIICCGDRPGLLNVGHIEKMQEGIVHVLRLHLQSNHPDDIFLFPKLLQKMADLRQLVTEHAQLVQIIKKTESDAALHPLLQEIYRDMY
Description: PPARα luciferase cell reporter assay (Indigo Biosciences). Format: cell-based. The conditions noted are these: for Fold (5 μM): fold increase in luciferase compared to DMSO negative control / Fold (50 μM): fold increase in luciferase compared to DMSO negative control: structure IIa compounds (Table 6); for ratio of agonism compared to GW590735 (value in parentheses): hPPARα luciferase reporter cell-line; for PPAR isoform selectivity profile: hPPARα vs hPPARδ and hPPARγ luciferase cell-lines; for dose-dependent PPARα agonism in cell-based luciferase reporter assay: FIGS. 4 and 7. The source says: With the focused subset of analogs in-hand, our efforts shifted to the evaluation of these derivatives for PPARα agonism. Preliminary evaluation utilized a commercially available PPARα luciferase cell reporter assay (Indigo Biosciences). The cell-line employed is engineered to constitutively express high-levels of hPPARα. Upon interaction with an agonist, hPPARα translocates to the nucleus, binds to the PPRE, and upregulates gene transcription, including the inserted luciferase gene. Luciferase activity is detected indirectly through quantification of oxyluciferin production.

The nature of data set [5]: Solubilities of various compounds. Format: physicochemical.
Setting [6] is: Table 6, cellular luciferase activity, read-out: δ EC50.
Setting [7] is: luciferase reporter cell-line, triplicate, single experiment, read-out: hPPARδ EC50.
Where [8] appears, read: Table 6, cellular luciferase activity, read-out: γ EC50.
Where [9] appears, read: luciferase reporter cell-line, triplicate, single experiment, read-out: hPPARγ EC50.
Setting [10] is: STZ diabetic Brown Norway rats, daily i.p. injection 26-28 days.
Where [11] appears, read: inferred from efficacy after systemic administration.
[12] abbreviates: Table 6, cellular luciferase activity, read-out: α EC50.
[13] abbreviates: luciferase reporter cell-line, triplicate, single experiment, read-out: hPPARα EC50.
Setting [14] is: PBS, pH 7.4, aqueous buffer, read-out: PBS Solubility pH 7.4.
[15] abbreviates: water, H2O, read-out: H2O Solubility.

≈ marks a conversion by molar mass, not a printed value. Like-named read-outs stand apart in the source and are kept apart here.

In the case of `COc1ccc(COc2ccc(CNc3cccc(C(=O)O)c3)cc2)cc1` [Compound 91], the EC50 on hPPARδ (setting [6]), on hPPARδ (setting [7]), at hPPARγ (setting [8]) and on hPPARγ (setting [9]) was above 100 µM each time. The “expression of PPARα (Western blot, densitometry)” value in data set [1] is recorded as “induced the expression of PPARα in a dose-dependent manner”. Further, the “expression of PPARα target genes (Acadm, Cpt1a, Fabp3, Slc25a20)” value in data set [2] is given as “induces the expression of various PPARα target genes”. Further, the retinal vascular leakage result in data set [3] (setting [10]) is listed as “reduces retinal vascular leakage in diabetic rats”. For the same compound, in data set [3] (setting [11]), the “bioavailability” value is “is bioavailable”. The blood-ocular barrier crossing result in data set [3] (setting [11]) is “crosses blood-ocular barrier and reaches the retina”. Further, the signs of hepatomegaly entry in data set [4] (setting [10]) is listed as “seems to lack signs of hepatomegaly”. The observable toxicity entry in data set [4] (daily injection for one-month) was “no observable toxicity”.

Turning to `COc1ccc(COc2ccc(CNc3cccc(C(=O)O)c3)c(OCc3ccc(OC)cc3)c2)cc1` [Compound 92], the “Fold (5 μM): fold increase in luciferase compared to DMSO negative control” value (shortened to “Fold (5 μM): fold increase in luciferase”) at hPPARα is 8 fold. Also, on hPPARα, the “Fold (50 μM): fold increase in luciferase compared to DMSO negative control” value (“Fold (50 μM): fold increase” for short) turned out to be 21 fold. In addition, the EC50 on hPPARα (setting [12]) is 5.1 µM; on hPPARα (setting [13]), 5.1 µM; on hPPARδ (setting [6]), above 100 µM; at hPPARδ (setting [7]), above 100 µM; at hPPARγ (setting [8]) it was above 100 µM; at hPPARγ (setting [9]), above 100 µM. Also, the “ratio of agonism compared to GW590735 (value in parentheses)” value on hPPARα was determined as 1.1. Besides, the “PPAR isoform selectivity profile” value at hPPARα is given as “maintains the selectivity”.

For the compound `COc1ccc(COc2ccc(CNc3cccc(OC(C)(C)C(=O)O)c3)cc2)cc1` [Compound 114], the EC50 is 18.3 µM on hPPARδ (setting [6]), 38.6 µM on hPPARδ (setting [7]), 38.6 µM on hPPARγ (setting [8]) and 18.3 µM on hPPARγ (setting [9]).

As to `COc1ccc(COc2ccc(CNc3cccc(OC(C)(C)C(=O)O)c3)c(OCc3ccc(OC)cc3)c2)cc1` [Compound 115], the “Fold (5 μM): fold increase in luciferase” value on hPPARα is 1 fold. Besides, at hPPARα, the “Fold (50 μM): fold increase” value amounted to 41 fold. At hPPARα (28 compared with 22), the “improvement in potency on adding third B-ring substituent” value stood at 10 fold. The concentration for a half-maximal effect (EC50) at hPPARα (setting [12]) amounted to 2.1 µM; at hPPARα (setting [13]), 2.1 µM; on hPPARδ (setting [6]), 5.6 µM; at hPPARδ (setting [7]) it was 8.9 µM; on hPPARγ (setting [8]), 8.9 µM; at hPPARγ (setting [9]), 5.6 µM. In addition, on hPPARα, the “ratio of agonism compared to GW590735 (value in parentheses)” value stood at 1.4. Further, the “PPAR isoform selectivity profile” value at hPPARα is listed as “pan-agonist profile was maintained”.

Consider `O=C(O)c1cccc(NCc2ccc(OCc3ccc(I)cc3)cc2)c1` [Compound 189], for which, on hPPARα, the “Fold (5 μM): fold increase in luciferase” value came to 39 fold and the “Fold (50 μM): fold increase” value is 37 fold. Besides, the EC50 on hPPARα (setting [12]) turned out to be 1.2 µM.

Consider `Cc1cc(CNc2cccc(C(=O)O)c2)ccc1OCc1ccc(F)cc1` [Compound 190], for which the “dose-dependent PPARα agonism in cell-based luciferase reporter assay” value is given as “exhibits dose-dependent activity” on hPPARα and “dose-dependent agonism of PPARα” at hPPARα (listed as A190). Besides, the EC50 at hPPARα (setting [12]) is 0.03 µM; on hPPARα (text b235, read-out: EC50 (PPARα)) it was 0.037 µM; on hPPARδ (setting [6]), above 100 µM; on hPPARγ (setting [8]), above 100 µM.

On to `N#Cc1ccc(COc2ccc(CNc3cccc(C(=O)O)c3)cc2)cc1` [Compound 191], for which, on hPPARα, the “Fold (5 μM): fold increase in luciferase” value was determined as 42 fold and the “Fold (50 μM): fold increase” value was 61 fold.

As to `O=C(O)c1cccc(NCc2ccc(OCc3ccc(Br)cc3)cc2)c1` [Compound 192], on hPPARα, the “Fold (5 μM): fold increase in luciferase” value was determined as 53 fold and the “Fold (50 μM): fold increase” value is reported as 58 fold. Moreover, at hPPARα (setting [12]), the EC50 came to 0.8 µM.

Regarding `O=C(O)c1cccc(NCc2ccc(OCc3cccc(F)c3)cc2)c1` [Compound 193], on hPPARα, the “Fold (5 μM): fold increase in luciferase” value amounted to 73 fold and the “Fold (50 μM): fold increase” value came to 56 fold. At hPPARα (setting [12]), the EC50 is 1.1 µM.

As for `O=C(O)c1cccc(NCc2ccc(OCc3ccc(F)cc3F)cc2)c1` [Compound 194], on hPPARα, the EC50 is 0.4 µM, the “Fold (5 μM): fold increase in luciferase” value amounted to 51 fold and the “Fold (50 μM): fold increase” value is recorded as 49 fold.

`O=C(O)c1cccc(NCc2ccc(OCc3ccccc3F)cc2)c1` [Compound 195]: on hPPARα, the “Fold (5 μM): fold increase in luciferase” value is listed as 34 fold and the “Fold (50 μM): fold increase” value was 45 fold.

In the case of `Cc1cc(CNc2cccc(C(=O)O)c2)ccc1OCc1cc(F)cc(F)c1` [Compound 198], at hPPARα, the “Fold (5 μM): fold increase in luciferase” value was 88 fold and the “Fold (50 μM): fold increase” value is reported as 84 fold.

Consider `Cc1cc(CN(C)c2cccc(C(=O)O)c2)ccc1OCc1ccc(F)cc1` [Compound 199], for which, on hPPARα, the “Fold (5 μM): fold increase in luciferase” value worked out at 102 fold and the “Fold (50 μM): fold increase” value worked out at 131 fold.

Regarding `CC(C)(Oc1ccc(C(=O)c2ccc(Cl)cc2)cc1)C(=O)O` [Fenofibric acid, fenofibric acid, reference compound], the solubility in data set [5] (setting [14]) was 278 µM (≈ 88.6 µg/mL); in data set [5] (setting [15]), 93 µM (≈ 29.6 µg/mL).

Consider `Cc1cc(CNc2cccc(C(=O)OCOP(=O)([O-])O)c2)ccc1OCc1ccc(F)cc1.[Na+]` [ZH-2021-162], for which the solubility was 292 µM in data set [5] (setting [14]) and 318 µM in data set [5] (setting [15]).

For `Cc1cc(CNc2cccc(C(=O)OCOP(=O)(O)O)c2)ccc1OCc1ccc(F)cc1` [ZH-2021-164], the solubility was 316 µM (≈ 150 µg/mL) in data set [5] (setting [14]) and 284 µM (≈ 135 µg/mL) in data set [5] (setting [15]).
